{
  "source": "patent US11780893B2",
  "about": "“Kv1.3 blockers” (Zealand Pharma A/S, priority 2019, dated 2023)",
  "key": {"[1]": {"target": "T1, human Kv1.3 voltage-gated K+ channel (Homo sapiens, UniProt P22001)", "T1 construct": "host or cells: CHO-DUKX", "T1 sequence (P22001 whole entry)": "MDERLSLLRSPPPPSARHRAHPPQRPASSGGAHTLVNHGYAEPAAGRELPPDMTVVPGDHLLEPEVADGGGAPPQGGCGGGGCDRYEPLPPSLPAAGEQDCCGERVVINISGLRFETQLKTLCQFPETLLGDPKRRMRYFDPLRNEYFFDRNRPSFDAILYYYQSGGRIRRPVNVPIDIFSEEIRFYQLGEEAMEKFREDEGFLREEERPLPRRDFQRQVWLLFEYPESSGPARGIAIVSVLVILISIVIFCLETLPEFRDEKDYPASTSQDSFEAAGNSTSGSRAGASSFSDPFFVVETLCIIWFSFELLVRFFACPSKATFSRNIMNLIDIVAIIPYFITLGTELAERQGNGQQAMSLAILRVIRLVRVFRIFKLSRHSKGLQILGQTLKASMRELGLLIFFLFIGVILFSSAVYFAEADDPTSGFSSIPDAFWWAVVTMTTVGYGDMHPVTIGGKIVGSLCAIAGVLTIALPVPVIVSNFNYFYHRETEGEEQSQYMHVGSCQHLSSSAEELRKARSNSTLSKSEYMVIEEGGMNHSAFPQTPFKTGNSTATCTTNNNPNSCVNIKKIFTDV", "assay": "cell-based", "conditions": "inhibition of thallium flux, CHO-DUKX cells with human Kv1.3; read-out: IC50"}, "[2]": {"target": "Rat whole blood (Rattus norvegicus, UniProt P15384)", "sequence (P15384 whole entry)": "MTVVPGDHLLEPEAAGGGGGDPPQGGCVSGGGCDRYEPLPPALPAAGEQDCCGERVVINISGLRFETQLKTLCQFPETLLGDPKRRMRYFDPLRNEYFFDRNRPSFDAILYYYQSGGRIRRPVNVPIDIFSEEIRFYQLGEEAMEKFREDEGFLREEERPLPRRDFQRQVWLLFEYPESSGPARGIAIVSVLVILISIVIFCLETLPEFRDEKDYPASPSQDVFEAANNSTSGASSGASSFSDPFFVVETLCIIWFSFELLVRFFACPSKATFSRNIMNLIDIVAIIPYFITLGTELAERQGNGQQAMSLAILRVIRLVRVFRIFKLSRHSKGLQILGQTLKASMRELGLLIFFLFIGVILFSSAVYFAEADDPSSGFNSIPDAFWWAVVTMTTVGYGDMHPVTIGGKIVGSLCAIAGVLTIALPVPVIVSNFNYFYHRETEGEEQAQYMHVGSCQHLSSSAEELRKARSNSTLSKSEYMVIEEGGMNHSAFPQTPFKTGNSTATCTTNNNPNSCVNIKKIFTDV"}, "[3]": {"conditions": "inhibition of IL-17A release, thapsigargin, 24 Hr, at least 2 replicates"}},
  "note": "Like-named read-outs stand apart in the source and are kept apart here. Bridge positions count the residues as written; N and C are the ends. Square brackets hold non-standard residues; d marks the D form. Peptide text beside a SMILES is read from it. hLys = NCCCCC[C@H](N)C(=O)O; Nle = CCCC[C@H](N)C(=O)O; Abu = CC[C@H](N)C(=O)O",
  "data": [
    {"smiles": "CCCC[C@H](NC(=O)[C@H](CC(=O)O)NC(=O)[C@H](CCCC)NC(=O)[C@@H](N)CO)C(=O)N[C@@H](CCCNC(=N)N)C(=O)N[C@H]1CSSC[C@@H]2NC(=O)[C@H](CCCCN)NC(=O)CNC(=O)[C@H](Cc3ccccc3)NC(=O)[C@H]([C@@H](C)CC)NC(=O)[C@H](CO)NC(=O)CNC(=O)[C@H]([C@@H](C)CC)NC(=O)[C@H](C)NC(=O)[C@H](CCCCN)NC(=O)[C@H](CC(C)C)NC(=O)[C@@H]3CSSC[C@@H](C(=O)N[C@@H](Cc4ccc(O)cc4)C(=O)N4CCC[C@H]4C(=O)N[C@@H](CCCNC(=N)N)C(N)=O)NC(=O)[C@H](CCCCN)NC(=O)[C@H](CSSC[C@H](NC(=O)[C@H](CCC(=O)O)NC(=O)[C@H](C(C)C)NC(=O)[C@H](CC)NC(=O)[C@H](C)NC(=O)[C@H](CO)NC1=O)C(=O)N[C@@H](CCCCN)C(=O)N[C@@H](CCC(N)=O)C(=O)N[C@@H](CCCCN)C(=O)N3)NC(=O)[C@H](CCCCN)NC(=O)[C@H](CCCCN)NC(=O)[C@H](CC(N)=O)NC(=O)[C@H](CCSC)NC2=O", "note": "[Compound 68] (H-S[Nle]D[Nle]RCSA[Abu]VECKQKCLKAIGSIFGKCMNKKCKCYPR-NH2; disulfide 6-27, 12-32, 16-34)", "values": [
      {"measurement": "IC50", "setting": "[1]", "result": 0.2, "unit": "nM"},
      {"measurement": "IC50", "setting": "[2]", "result": "≤ 1", "unit": "nM"},
      {"measurement": "IC50", "setting": "[2]; [3]", "result": 0.93, "unit": "nM"}
    ]},
    {"smiles": "CCCC[C@H](NC(=O)[C@H](CC(=O)O)NC(=O)[C@H](CCCC)NC(=O)[C@@H](N)CO)C(=O)N[C@@H](CCCNC(=N)N)C(=O)N[C@H]1CSSC[C@@H]2NC(=O)[C@H](CCCCCN)NC(=O)CNC(=O)[C@H](Cc3ccccc3)NC(=O)[C@H]([C@@H](C)CC)NC(=O)[C@H](CO)NC(=O)CNC(=O)[C@H]([C@@H](C)CC)NC(=O)[C@H](C)NC(=O)[C@H](CCCCN)NC(=O)[C@H](CC(C)C)NC(=O)[C@@H]3CSSC[C@@H](C(=O)N[C@@H](Cc4ccc(O)cc4)C(=O)N4CCC[C@H]4C(=O)N[C@@H](CCCNC(=N)N)C(N)=O)NC(=O)[C@H](CCCCN)NC(=O)[C@H](CSSC[C@H](NC(=O)[C@H](CCC(=O)O)NC(=O)[C@H](C(C)C)NC(=O)[C@H](CO)NC(=O)[C@H](C)NC(=O)[C@H](CO)NC1=O)C(=O)N[C@@H](CCCCN)C(=O)N[C@@H](CCC(N)=O)C(=O)N[C@@H](CCCCN)C(=O)N3)NC(=O)[C@H](CCCCN)NC(=O)[C@H](CCCCN)NC(=O)[C@H](CC(N)=O)NC(=O)[C@H](CCSC)NC2=O", "note": "[Compound 69] (H-S[Nle]D[Nle]RCSASVECKQKCLKAIGSIFG[hLys]CMNKKCKCYPR-NH2; disulfide 6-27, 12-32, 16-34)", "values": [
      {"measurement": "IC50", "setting": "[1]", "result": 0.58, "unit": "nM"},
      {"measurement": "IC50", "setting": "[2]; [3]", "result": 2.7, "unit": "nM"}
    ]},
    {"smiles": "CCCC[C@H](NC(=O)[C@H](CC(=O)O)NC(=O)[C@H](CCCC)NC(=O)[C@@H](N)CO)C(=O)N[C@@H](CCCNC(=N)N)C(=O)N[C@H]1CSSC[C@@H]2NC(=O)[C@H](CCCCN)NC(=O)CNC(=O)[C@H](Cc3ccccc3)NC(=O)[C@H]([C@@H](C)CC)NC(=O)[C@H](CO)NC(=O)CNC(=O)[C@H]([C@@H](C)CC)NC(=O)[C@H](C)NC(=O)[C@H](CCCCN)NC(=O)[C@H](CC(C)C)NC(=O)[C@@H]3CSSC[C@@H](C(=O)N[C@@H](Cc4ccc(O)cc4)C(=O)N4CCC[C@H]4C(=O)N[C@@H](CCCNC(=N)N)C(N)=O)NC(=O)[C@H](CCCCN)NC(=O)[C@H](CSSC[C@H](NC(=O)[C@H](CCC(=O)O)NC(=O)[C@H](C(C)C)NC(=O)[C@H](CO)NC(=O)[C@H](C)NC(=O)[C@H](CO)NC1=O)C(=O)N[C@@H](C(C)C)C(=O)N[C@@H](CCC(N)=O)C(=O)N[C@@H](CCCCN)C(=O)N3)NC(=O)[C@H](CCCCN)NC(=O)[C@H](CCCCN)NC(=O)[C@H](CC(N)=O)NC(=O)[C@H](CCSC)NC2=O", "note": "[Compound 72] (H-S[Nle]D[Nle]RCSASVECVQKCLKAIGSIFGKCMNKKCKCYPR-NH2; disulfide 6-27, 12-32, 16-34)", "values": [
      {"measurement": "IC50", "setting": "[1]", "result": 0.19, "unit": "nM"},
      {"measurement": "IC50", "setting": "[2]", "result": "≤ 1", "unit": "nM"},
      {"measurement": "IC50", "setting": "[2]; [3]", "result": 0.47, "unit": "nM"}
    ]}
  ]
}
